US20210113560A1, “METHOD OF TREATING FIBROTIC DISEASE” (BLADE THERAPEUTICS, INC., priority 2018, published 2021)
Peptide text beside a SMILES is read from it. * marks the point of attachment. Cbz = O=C(OCc1ccccc1)*

What follows are molecules tested against T1, calpain 2 (CAPN2) (Homo sapiens, UniProt P17655) (assay: Dilution of enzyme-inhibitor complex into substrate, reactivation over time (FIG. 1)). Settings: relative to unbound CAPN2 control; absence of excess compound.
T1 sequence (P17655 20-700 limits assumed): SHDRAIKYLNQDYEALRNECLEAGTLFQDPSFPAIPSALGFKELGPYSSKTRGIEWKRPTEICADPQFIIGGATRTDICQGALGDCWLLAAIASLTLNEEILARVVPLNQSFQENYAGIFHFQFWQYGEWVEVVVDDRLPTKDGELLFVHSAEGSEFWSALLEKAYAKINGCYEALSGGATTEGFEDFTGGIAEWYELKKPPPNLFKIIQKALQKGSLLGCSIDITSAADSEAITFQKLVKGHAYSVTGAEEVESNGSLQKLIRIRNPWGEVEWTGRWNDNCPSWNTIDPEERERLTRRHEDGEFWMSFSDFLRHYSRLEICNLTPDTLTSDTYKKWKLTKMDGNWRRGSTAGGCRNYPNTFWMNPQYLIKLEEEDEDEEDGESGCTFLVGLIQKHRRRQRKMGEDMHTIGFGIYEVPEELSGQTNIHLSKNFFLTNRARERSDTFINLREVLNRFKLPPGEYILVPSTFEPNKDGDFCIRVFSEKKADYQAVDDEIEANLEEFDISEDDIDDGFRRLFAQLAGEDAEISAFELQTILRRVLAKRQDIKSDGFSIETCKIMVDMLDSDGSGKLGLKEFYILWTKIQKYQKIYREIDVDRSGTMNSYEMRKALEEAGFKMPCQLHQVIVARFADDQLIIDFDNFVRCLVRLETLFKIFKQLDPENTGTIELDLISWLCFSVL
T1 sequence (P04632 1-268 partner): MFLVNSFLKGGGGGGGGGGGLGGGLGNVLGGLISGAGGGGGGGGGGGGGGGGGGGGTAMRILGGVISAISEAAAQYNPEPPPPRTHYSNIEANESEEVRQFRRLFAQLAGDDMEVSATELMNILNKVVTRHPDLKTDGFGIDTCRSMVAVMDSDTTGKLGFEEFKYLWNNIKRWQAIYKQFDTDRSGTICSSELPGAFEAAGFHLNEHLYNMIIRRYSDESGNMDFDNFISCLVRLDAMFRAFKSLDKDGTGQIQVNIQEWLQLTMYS
Assay type: biochemical
From the text: (§1) FIG. 1: Dissociation of Compound 10 from calpain 2 (CAPN2). Complexes of Compound 10 with either CatK or CAPN2 were generated, followed by dilution into substrate-containing assay wells to initiate data collection. Reactivation of the target enzymes due to dissociation of the enzyme-inhibitor complexes was observed as a function of time. […] CAPN2 control (upper dashed line). Thus, inhibition of CAPN2 by Compound 10 is retained even in the absence of excess Compound 10. Further, this effect is selective and provides a basis for specific action of Compound 10 against CAPN2.

Row | SMILES | Retention of CAPN2 inhibition after dilution of the complex
1 | Cc1nc(-c2ccccc2F)c(C(=O)NC(Cc2ccccc2)C(=O)C(N)=O)o1 (centres unmarked) [Compound 10] | inhibition is retained

Each molecule was assayed against T2, CatK (Homo sapiens, UniProt P43235) in the same assay as above. Settings: compared to unbound CatK control.
T2 sequence (P43235 115-329): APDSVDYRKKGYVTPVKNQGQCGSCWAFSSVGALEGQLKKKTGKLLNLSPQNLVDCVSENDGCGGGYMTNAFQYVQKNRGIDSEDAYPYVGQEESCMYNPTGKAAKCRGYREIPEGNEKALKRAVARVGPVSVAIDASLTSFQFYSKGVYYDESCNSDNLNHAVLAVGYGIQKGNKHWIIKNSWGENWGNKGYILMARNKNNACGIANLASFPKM
Assay type: biochemical
From the text: as §1

Row | SMILES | Reactivation of CatK after dilution of the CatK-compound complex
2 | Cc1nc(-c2ccccc2F)c(C(=O)NC(Cc2ccccc2)C(=O)C(N)=O)o1 (centres unmarked) [Compound 10] | almost an immediate reactivation

The molecules below were run against T3, CAPN2 (Homo sapiens, UniProt P17655) (assay: Activity based probe (ABP) off-rate assay of CAPN2 inhibitors, SDS-PAGE readout). Settings: t1/2=0.693/k from first order decay fit; complex diluted ten-fold into 10 uM ABP; time points 0-24 hours.
T3 sequence (P17655 20-700 limits assumed): T1 sequence (P17655 20-700 limits assumed)
T3 sequence (P04632 1-268 partner): T1 sequence (P04632 1-268 partner)
Assay type: binding
From the text: FIG. 2: Dissociation of Compound 10 from calpain 2 (CAPN2). Complexes of Compound 10 with CAPN2 were generated, followed by dilution into an excess of Compound 29 (a probe for unbound CAPN2). Samples were taken at the time points (lanes 1-6 for 0, 1, 2, 4, 7 and 24 hr respectively) and analyzed by gel electrophoresis to determine the amount of Compound 29 probe incorporation. Lanes 7 and 8 reflect negative and positive controls for probe labeling, respectively. The dissociation rate and half-life for the Compound 10-CAPN2 complex was then calculated.
A fluorescently labeled irreversible activity based probe (ABP) was used to measure off rates of CAPN2 inhibitors as follows. The ABP molecule contains a fluoro-methyl ketone warhead that irreversibly reacts with the active site cysteine nucleophile of CAPN enzymes. ABP is also labeled with the Alexa 647 fluorophore which allows for sensitive quantitation of the CAPN2.ABP adduct.
The assay is typically performed by pre-incubating 2 uM CAPN2 with […] test inhibitor for 30 minutes in assay buffer (50 mM Tris-HCl, 100 mM NaCl, 2 mM CaCl2, 1 mM DTT, 0.02% Brij-35, pH7.4). This incubation mixture (containing the CAPN2.inhibitor complex) is diluted ten-fold into the same assay buffer containing 10 uM ABP. This is time zero at which an aliquot is immediately withdrawn and quenched by adding denaturing SDS-PAGE loading buffer and heating at 95° C. for 5 minutes. Additional aliquots are typically withdrawn and quenched at time points of 0.5, 1, 2, 4, 7, 24 hours. Quenched samples are stored frozen at −80° C. until SDS-PAGE analysis.
For a given test inhibitor, all time points are run on the same gel with the following two control samples. An assay minimum control is prepared by pre-incubating 2 uM CAPN2 in assay buffer for 1 hour. The incubation mixture is diluted, ten-fold into the same assay buffer containing 10 uM ABP, reacted for 30 minutes and quenched. After the initial 1 hour incubation, the CAPN2 enzyme is autolytically degraded and should generate little to no signal. An assay maximum control is prepared by adding 10 uM ABP to 0.2 uM CAPN2 in assay buffer and incubating for 30 minutes and quenching.
After SDS-PAGE, the gel is scanned using a LAS4000 ImageQuant platform to quantify the Alexa 647 intensity at ˜75 kDa (molecular weight of full length activated CAPN2). The minimum and maximum controls on each gel are used to calculate percentage of test compound bound at each time point. […] Using the equation t1/2=0.693/k, the off rate (k) is converted to and reported as CAPN2.inhibitor complex half-life (t1/2).

Row | SMILES | Half-life of Compound-CAPN2 Complex [h]
3 | NC(=O)C(=O)C(Cc1ccccc1)NC(=O)c1nsnc1-c1ccccc1F (centres unmarked) [Compound 18] | 5.5
4 | Cn1cc(C(=O)NC(Cc2ccccc2)C(=O)C(N)=O)c(-c2cccc(F)c2)n1 (centres unmarked) [Compound 13] | 0.633
5 | Cc1nc(-c2ccccc2F)c(C(=O)NC(Cc2ccccc2)C(=O)C(N)=O)o1 (centres unmarked) [Compound 10] | 2.7
6 | Cn1cc(C(=O)N[C@@H](Cc2ccccc2)C(=O)C(N)=O)c(-c2ccccc2)n1 [Compound 26] | 0.483
7 | Cc1cc(C(=O)NC(Cc2ccccc2)C(=O)C(N)=O)n(-c2ccccn2)n1 (centres unmarked) [Compound 5] | 0.467
8 | NC(=O)C(=O)C(Cc1ccccc1)NC(=O)c1nsnc1-c1cccc(F)c1 (centres unmarked) [Compound 19] | 2.8
9 | O=CC(Cc1ccccc1)NC(=O)c1nsnc1-c1ccccc1 (centres unmarked) [Compound 7] | 1.05
10 | CC(C)C(NC(=O)OCc1ccccc1)C(=O)NC(Cc1ccccc1)C(=O)C(N)=O (centres unmarked) [Compound 30] | 17.77
11 | NC(=O)C(=O)C(Cc1ccccc1)NC(=O)c1cn(C(F)F)nc1-c1cccc2cnccc12 (centres unmarked) [Compound 1] | 2.8
12 | Cn1cc(C(=O)NC(Cc2ccccc2)C(=O)C(N)=O)c(-c2cccc3cn[nH]c23)n1 (centres unmarked) [Compound 37] | 0.65
13 | CC(C)[C@@H](NC(=O)CCCNC(=O)CCCCCC1(C)C(/C=C/C=C/C=C2/N(CCCS(=O)(=O)O)c3ccccc3C2(C)C)=[N+](CCCS(=O)(=O)O)c2ccc(S(=O)(=O)O)cc21)C(=O)NC(Cc1ccccc1)C(=O)CF (some centres unmarked) [Compound 29] | 7
14 | CCN(CC)Cc1ccc(/C=C/c2ccccc2C(=O)NC(Cc2ccccc2)C(=O)C(N)=O)cc1 (centres unmarked) [Compound 27] | 0.9
15 | NC(=O)C(=O)C(Cc1ccccc1)NC(=O)c1nsnc1-c1ccncn1 (centres unmarked) [Compound 34] | 1.27
16 | NC(=O)C(=O)C(Cc1ccccc1)NC(=O)c1nsnc1-c1ccccc1 (centres unmarked) [Compound 24] | 6.6
17 | NC(=O)C(=O)C(Cc1ccccc1)NC(=O)c1nsnc1-c1cccc2c1OC(F)(F)O2 (centres unmarked) [Compound 31] | 4.87
18 | Cc1nc(-c2ccccc2)c(C(=O)NC(Cc2ccccc2)C(=O)C(N)=O)o1 (centres unmarked) [Compound 14] | 5.4
19 | Cn1cc(C(=O)NC(Cc2ccccc2)C(=O)C(N)=O)c(-c2cccc3c2OC(F)(F)O3)n1 (centres unmarked) [Compound 41] | 0.45
20 | NC(=O)C(=O)C(Cc1ccccc1)NC(=O)c1cn(C(F)F)nc1-c1ccccc1 (centres unmarked) [Compound 17] | 2.1

Row | SMILES | Half-life of Compound-CAPN2 Complex [h]
21 | Cn1cc(C(=O)NC(Cc2ccccc2)C(=O)C(N)=O)c(-c2cccc3oc(=O)[nH]c23)n1 (centres unmarked) [Compound 38] | 0.65
22 | Cn1cc(C(=O)NC(Cc2ccccc2)C(=O)C(N)=O)c(-c2ccccc2F)n1 (centres unmarked) [Compound 16] | 0.867
23 | O=C(O)C(=O)C(Cc1ccccc1)NC(=O)c1nsnc1-c1ccccc1 (centres unmarked) [Compound 33] | 1.87
24 | Cc1c(F)cccc1-c1nsnc1C(=O)NC(Cc1ccccc1)C(=O)C(N)=O (centres unmarked) [Compound 36] | 0.75
25 | CC(C)[C@H](NC(=O)OCc1ccccc1)C(=O)N[C@H](C=O)Cc1ccccc1 [Compound 28] (Cbz-Val-Phe-aldehyde) | 3
26 | O=C(NC1CC1)C(=O)C(Cc1ccccc1)NC(=O)[C@H]1CCC(=O)N1Cc1ccccc1 (some centres unmarked) [Compound 9] | 0.083
27 | NC(=O)C(=O)C(Cc1ccccc1)NC(=O)c1c(C(F)(F)F)ccc(Cl)c1F (centres unmarked) [Compound 8] | 2.4
28 | Cc1cncc(-c2nn(C(F)F)cc2C(=O)NC(Cc2ccccc2)C(=O)C(N)=O)c1 (centres unmarked) [Compound 39] | 0.533
29 | NC(=O)C(=O)C(Cc1ccccc1)NC(=O)c1nsnc1-c1cccc2c1OC(F)(F)O2 (centres unmarked) [Compound 2] | 9.63
30 | NC(=O)C(=O)[C@H](Cc1ccccc1)NC(=O)c1cnoc1-c1ccccc1 [Compound 25] | 1.6
31 | Cc1nc(-c2cccc(F)c2)c(C(=O)NC(Cc2ccccc2)C(=O)C(N)=O)o1 (centres unmarked) [Compound 11] | 3.53
32 | CC[C@H](NC(=O)[C@H](CC(C)C)NC(=O)OCc1ccccc1)C(=O)C(=O)NCc1cc(OC)cc(OC)c1 [Compound 23] | 1
33 | NC(=O)C(=O)C(Cc1ccccc1)NC(=O)c1nsnc1-c1cnccn1 (centres unmarked) [Compound 35] | 1.03
34 | NC(=O)C(=O)C(Cc1ccccc1)NC(=O)c1nsnc1-c1ccccn1 (centres unmarked) [Compound 32] | 2.32
35 | NC(=O)C(=O)C(Cc1ccccc1)NC(=O)c1cn(C2CC2)nc1-c1ccccc1 (centres unmarked) [Compound 12] | 0.333
36 | Cc1nc(-c2ccccc2F)c(C(=O)NC(Cc2ccccc2)C(=O)C(=O)O)o1 (centres unmarked) [Compound 40] | 0.467
37 | Cc1cc(C(=O)N[C@@H](Cc2ccccc2)C(=O)C(N)=O)n(-c2ccccc2)n1 [Compound 21] | 2.7
38 | O=C(NC1CC1)C(=O)C(Cc1ccccc1)NC(=O)c1nsnc1-c1ccccc1 (centres unmarked) [Compound 6] | 0.383
